Test results published in article PMC10536304 (2023).

Assays:
[1] = system: AU-RNA (poly A-poly U; rArU-RNA) (RNA, polymer) A/U; assay: UV thermal melting, 260 nm; details: Na+ (sodium cacodylate, I = 0.05 M); sodium cacodylate pH 7.0; r[compound]/[polynucleotide] = 0.1, polynucleotide 25 µM (phosphate); per base
[2] = system: AU-RNA (poly A-poly U; rArU-RNA) (RNA, polymer) A/U; assay: CD titration, Scatchard; details: Na+ (sodium cacodylate, I = 0.05 M); sodium cacodylate pH 7.0, 25 °C; Scatchard n fixed 0.2 per phosphate; per base

∆Tm [1]: 3.7 ± 0.5 °C | logKs [2]: 6.5 log(M^-1)
SMILES: c1cc2ccc3ccc(CNCCCNCCN(CCNCCCNCc4ccc5ccc6cccc7ccc4c5c67)CCNCCCNCc4ccc5ccc6cccc7ccc4c5c67)c4ccc(c1)c2c34
